The text below walks through data of US20220177462A1, “SUBSTITUTED HETEROCYCLIC AMIDE COMPOUND AND PREPARATION METHOD THEREFOR AND PHARMACEUTICAL USE THEREOF” (GENFLEET THERAPEUTICS (SHANGHAI) INC., priority 2019, published 2022).

One experiment relates to L929 cells. Nature of the experiment: Inhibitory activity against programmed necroptosis of L929 cells induced by TNF-α. The class given is cell-based. The conditions noted are these: Mus musculus, 30 ng/ml murine TNF-α and 15 μM Z-VAD, 6 hours, CellTiter-Glo survival rate, read-out: L929 AbIC50. The procedure:
The compound was dissolve in DMSO to prepare a 10 mM stock solution. The stock solution was diluted in 3.16 folds with DMSO to a series of gradient concentrations. Then, the resultant solution was diluted in 100 folds with a culture medium to prepare a working solution. The L929 cells were inoculated in a 384-well plate at 10000/well. The compound at respective concentration was added to each of the wells, and was mixed with the cells homogeneously. 30 ng/ml murine TNF-α and 15 μM Z-VAD were added simultaneously to induce programmed necroptosis of the cells. The final concentration of DMSO was 2%. The cells were placed in an incubator at 37° C. and 5% CO2 for further culture of 6 hours. CellTiter-Glo reagent was used for detection. After adequate pyrolysis reaction, the chemiluminescence readout value was recorded by a microplate reader. The survival rate was calculated from the detection results using the equation as follows: SR (%)=(RLU compound −RLU blank)/(RLU high control−RLU blank)×100%. The survival rate was plotted against the final concentration of respective compound using a 4-parameter fitting to calculate the inhibitory IC50 of the compound against programmed necroptosis of cells induced by TNF-a.

For a further experiment, the target named is T1, RIPK1 enzyme (Homo sapiens, UniProt Q13546).
T1 construct: purchased Eurofins 16-022
T1 sequence (Q13546 1-671): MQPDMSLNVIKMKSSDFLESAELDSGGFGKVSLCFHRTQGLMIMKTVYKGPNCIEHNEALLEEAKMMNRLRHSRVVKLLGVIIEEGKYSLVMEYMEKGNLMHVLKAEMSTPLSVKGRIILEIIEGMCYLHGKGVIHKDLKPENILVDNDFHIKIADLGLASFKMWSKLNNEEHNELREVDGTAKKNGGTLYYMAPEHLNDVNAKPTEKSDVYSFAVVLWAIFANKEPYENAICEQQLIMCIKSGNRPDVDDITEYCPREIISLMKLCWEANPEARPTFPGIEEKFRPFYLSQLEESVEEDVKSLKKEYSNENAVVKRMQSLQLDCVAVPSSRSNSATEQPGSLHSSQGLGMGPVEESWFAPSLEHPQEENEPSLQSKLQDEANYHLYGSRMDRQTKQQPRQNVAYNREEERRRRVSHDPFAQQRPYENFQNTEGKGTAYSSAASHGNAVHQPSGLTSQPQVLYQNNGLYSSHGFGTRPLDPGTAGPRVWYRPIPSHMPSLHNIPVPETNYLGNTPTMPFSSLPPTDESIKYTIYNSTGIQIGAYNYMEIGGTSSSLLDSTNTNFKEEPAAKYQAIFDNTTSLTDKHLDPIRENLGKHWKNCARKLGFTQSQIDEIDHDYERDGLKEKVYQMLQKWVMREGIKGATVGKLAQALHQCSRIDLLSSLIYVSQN
Nature of the experiment: Inhibitory activity of the compounds against RIPK1 enzyme (33P-ATP, MBP substrate). The class given is biochemical. The conditions noted are these: 36 nM RIPK1, 0.33 mg/ml MBP, 155 μM P33-labeled ATP, room temperature 2 hours. The procedure:
The test compound was dissolved in DMSO to prepare a 10 mM stock solution. The stock solution was diluted in 3.16 folds with DMSO to a series of gradient concentrations. Then, the resultant solution was diluted in 50 folds with MOPS buffer pH 7.0 to prepare a working solution. The working solution was mixed with 36 nM RIPK1 (final concentration) and 0.33 mg/ml substrate MBP homogeneously. Thereafter, 10 mM magnesium ion and 155 μM P^33 isotopically labeled ATP were added for the reaction. The final concentration of DMSO was 2%. After the reaction was carried out at room temperature for 2 hours phosphoric acid was added to terminate the reaction. The final reaction system was tested using a liquid scintillation counter after treatment. The result obtained by subtracting a blank control from the tested value was converted to activity percentage as compared to the readout value of control group. The activity percentage was plotted against the final concentration of respective compound using a 4-parameter fitting to obtain the inhibitory IC50 of the compound against RIPK1 enzyme.

Another experiment deals with U937 cells. Nature of the experiment: Inhibitory activity against programmed necroptosis of U937 cells induced by TNF-α. It counts as cell-based, human. The procedure:
The U937 cell strain which was used in the following Testing Examples was derived from ATCC, No.: CRL-1593.2, batch No.: 63479999, culture medium: RPMI-1640+10% FBS.
The compound was dissolved in DMSO to prepare a 10 mM stock solution. The stock solution was diluted in 3.16 folds with DMSO to a series of gradient concentrations. Then, the resultant solution was diluted in 250 folds with a culture medium to prepare a working solution. The U937 cells were inoculated in a 384-well plate at 5000/well. The compound at respective concentration was added to each of the cells, and was mixed with the cells homogeneously. 100 ng/ml human TNF-α and 25 μM Q-VD-Oph were added simultaneously to induce programmed necroptosis of the cells. The final concentration of DMSO was 2%. The cells were placed in the incubator at 37° C. and 5% CO2 for further culture of 48 hours. Celltiter-Glo reagent was used for detection. After adequate pyrolysis reaction, the chemiluminescence readout value was recorded by a microplate reader. The survival rate was calculated from the detection results using the equation as follows: SR (%)=(RLU compound−RLU blank)/(RLU high control−RLU blank)×100%. The survival rate was plotted against the final concentration of respective compound using a 4-parameter fitting to calculate the inhibitory IC50 of the compound against programmed necroptosis of cells induced by TNF-a.

Where [1] appears, read: read-out: U937 IC50, 100 ng/ml human TNF-α and 25 μM Q-VD-Oph, 48 hours, CellTiter-Glo survival rate.
The mark [2] stands for this setting: Homo sapiens, U-937, 48 h, 100 ng/ml human TNF-α and 25 μM Q-VD-Oph, 48 hours, CellTiter-Glo survival rate, read-out: U937 IC50.

Like-named read-outs stand apart in the source and are kept apart here.

Turning to `COc1ncc(-c2ccc3nc(N)sc3c2)cc1C(=O)NC(C)c1ccccc1OC(F)(F)F` (single isomer, unassigned) [Compound Z1-2], the IC50 was 6 nM in the experiment on L929 cells; 14 nM at RIPK1 enzyme; 0.028 µM in the experiment with U937 cells (100 ng/ml human TNF-α and 25 μM Q-VD-Oph, 48 hours, CellTiter-Glo survival rate, read-out: U937 IC50).
With `COc1ncc(-c2ccc3nc(NC(C)=O)sc3c2)cc1C(=O)NC(C)c1ccccc1OC(F)(F)F` (single isomer, unassigned) [Compound Z5, 5-(2-acetylaminobenzothiazol-6-yl)-2-methoxy-N-(1-(2-(trifluoromethoxy)phenyl)ethyl)nicotinamide], the values for the IC50 against RIPK1 enzyme and with U937 cells (setting [1]) were 29 nM and 0.015 µM, respectively.
For `COc1ncc(-c2ccc3nc(NC(C)=O)sc3c2)cc1C(=O)NC(C)c1ccccc1OC(F)(F)F` (single isomer, unassigned) [Compound Z5-1], in that order: 28 nM and 0.005 µM.
As for `COc1ncc(-c2ccc3nc(NC(=O)C4CC4)sc3c2)cc1C(=O)NC(C)c1ccccc1OC(F)(F)F` (single isomer, unassigned) [Compound Z6, 5-(2-(cyclopropylcarbonylamino)benzo[d]thiazol-6-yl)-2-methoxy-N-(1-(2-(trifluoromethoxy)phenyl)ethyl)nicotinamide], the IC50 against RIPK1 enzyme stood at 36 nM; in the experiment with U937 cells (setting [2]) it was 0.008 µM.
On the same counts, the results for `COc1ncc(-c2ccc3nc(NC(=O)C4CC4)sc3c2)cc1C(=O)N[C@@H](C)c1ccccc1OC(F)(F)F` (single isomer, unassigned) [Compound Z6-1] are 60 nM and 0.003 µM.
As for `C[C@H](c1ccccc1OC(F)(F)F)N1CCc2ncc(-c3ccc4nc(N)sc4c3)cc2C1=O` (single isomer, unassigned) [Compound Z54-2], the IC50 is < 3 nM in the experiment on L929 cells; 51 nM against RIPK1 enzyme; 0.001 µM in the experiment on U937 cells (Homo sapiens, U-937, 48 h, read-out: U937 IC50(μM), 100 ng/ml human TNF-α and 25 μM Q-VD-Oph, 48 hours, CellTiter-Glo survival rate).
For `COc1ncc(-c2ccc3nc(N)sc3c2)cc1C(=O)NCc1ccccc1OC(F)(F)F` [Compound Z2, 5-(2-aminobenzo[d]thiazol-6-yl)-2-methoxy-N-(2-(trifluoromethoxy)benzyl)nicotinamide], the IC50 at RIPK1 enzyme is 23 nM; in the experiment on U937 cells (setting [2]), 0.038 µM.
Compound `COc1ncc(-c2ccc3nc(N)sc3c2)cc1C(=O)NC(C)c1cccc(OC(F)(F)F)c1` (centres unmarked) [Compound Z3, 5-(2-aminobenzo[d]thiazol-6-yl)-2-methoxy-N-(1-(3-(trifluoromethoxy)phenyl)ethyl)nicotinamide] had an IC50 against RIPK1 enzyme of 32 nM.
The same measure, in the same setting: next, `COc1ncc(-c2ccc3nc(N)sc3c2)cc1C(=O)NCc1cccc(OC(F)(F)F)c1` [Compound Z4, 5-(2-aminobenzo[d]thiazol-6-yl)-2-methoxy-N-(3-(trifluoromethoxy)benzyl)nicotinamide]: 17 nM; `COc1ncc(C(=O)NC(C)c2ccccc2OC(F)(F)F)cc1-c1ccc2nc(N)sc2c1` (centres unmarked) [Compound Z7, 5-(2-aminobenzo[d]thiazol-6-yl)-6-methoxy-N-(1-(2-(trifluoromethoxy)phenyl)ethyl)nicotinamide]: 84 nM.
The same measure, in the same setting: the value for `CC(NC(=O)c1cncc(-c2ccc3nc(N)sc3c2)c1)c1ccccc1OC(F)(F)F` (centres unmarked) [Compound Z9, 5-(2-aminobenzo[d]thiazol-6-yl)-N-(1-(2-(trifluoromethoxy)phenyl)ethyl)nicotinamide] was 60 nM; that for `Cc1ncc(C(=O)NC(C)c2ccccc2OC(F)(F)F)cc1-c1ccc2nc(N)sc2c1` (centres unmarked) [Compound Z10, 5-(2-aminobenzo[d]thiazol-6-yl)-6-methyl-N-(1-(2-(trifluoromethoxy)phenyl)ethyl)nicotinamide] was 64 nM.
With `COc1ncc(-c2ccc3nc(N)sc3c2)cc1C(=O)N1CCC[C@H](Cc2ccc(F)cc2)C1` [Compound Z17-1], the IC50 in the experiment on L929 cells was 10 nM; in the experiment with U937 cells (setting [2]), 0.009 µM.
On the same counts, the results for `Cn1ncc2c(-c3ccn4nc(N)nc4c3)cc(C(=O)N3CCCC(Cc4ccc(F)cc4)C3)cc21` (centres unmarked) [Compound Z29, (4-(2-amino-[1,2,4]triazolo[1,5-a]pyridin-7-yl)-1-methyl-1H-indazol-6-yl)(3-(4-fluorobenzyl)piperidin-1-yl)methanone] are 12 nM and 0.007 µM.
As for `Cn1ncc2c(-c3ccn4nc(N)nc4c3)cc(C(=O)NCc3cc(F)ccc3OC3CCCC3)cc21` [Compound Z31, 4-(2-amino-[1,2,4]triazolo[1,5-a]pyridin-7-yl)-N-(2-(cyclopentyloxy)-5-fluorobenzyl)-1-methyl-1H-indazole-6-carboxamide], the IC50 with L929 cells came out at 41 nM; in the experiment on U937 cells (setting [2]) it was 0.002 µM.
On the same counts, the results for `COc1ncc(-c2ccc3nc(N)sc3c2)cc1C(=O)NCc1cc(F)cc(F)c1OCC(C)C` [Compound Z49, 5-(2-aminobenzo[d]thiazol-6-yl)-N-(3,5-difluoro-2-isobutoxybenzyl)-2-methoxynicotinamide] are 37 nM and 0.006 µM.
Take `Nc1nc2ccc(-c3cnc4c(c3)C(=O)N(Cc3cc(OC(F)(F)F)ccc3F)CC4)cc2s1` [Compound Z55, 3-(2-aminobenzo[d]thiazol-6-yl)-6-(2-fluoro-5-(trifluoromethoxy)benzyl)-7,8-dihydro-1,6-naphthyridin-5(6H)-one]: the IC50 against RIPK1 enzyme stood at 39 nM; with U937 cells (setting [2]), 0.008 µM.
For `COc1ncc(-c2ccc3nc(NC(=O)C4CC4)sc3c2)cc1C(=O)NC(C)c1ccccc1OC(F)(F)F` (centres unmarked) [Compound Z56, 5-(2-(cyclopropylformamido)benzo[d]thiazol-6-yl)-2-methoxy-N-(1-(2-(trifluoromethoxy)phenyl)ethyl)nicotinamide], in that order: 36 nM and 0.008 µM.
On the same counts, the results for `Nc1nc2ccc(-c3cnc4c(c3)C(=O)N(Cc3cc(C(F)(F)F)ccc3F)CC4)cc2s1` [Compound Z65, 3-(2-aminobenzo[d]thiazol-6-yl)-6-(2-fluoro-5-(trifluoromethyl)benzyl)-7,8-dihydro-1,6-naphthyridin-5(6H)-one] are 43 nM and 0.048 µM.
